Test system: circulating TNFα
Assay: Circulating TNFα versus time post inflammatory trigger (FIG. 17)
Type: in vivo
Conditions: systemic inflammatory event; equal doses
Description: FIG. 17 includes a graph illustrating the relative percentage of circulating TNFα versus time post inflammatory trigger for a control, CBD and packaged CBD application.

C=C(C)[C@@H]1CCC(C)=C[C@H]1c1c(O)cc(CCCCC)cc1O [CBD, Cannabidiol]
effect on relative concentration of circulating TNFα: able to quell a systemic inflammatory event
